# According to patent US9938510B2, “Photobacterium sp. alpha-2-6-sialyltransferase variants” (The Regents of the University of California, priority 2014, dated 2018):
# Changes are numbered by the printed parent chain. Names and notes keep the numbering of the source. Where two headings read alike, the source gives them in different places.
# B1: Photobacterium sp. JH-ISH-224 α2-6-sialyltransferase Psp2,6ST(15-501)-His6 A235D mutant, SEQ ID NO: 14 (Photobacterium sp. JT-ISH-224; A235D) (protein)
# chain: CNNSEENTQSIIKNDINKTIIDEEYVNLEPINQSNISFTKHSWVQTCGTQQLLTEQNKESISLSVVAPRLDDDEKYCFDFNGVSNKGEKYITKVTLNVVAPSLEVYVDHASLPTLQQLMDIIKSEEENPTAQRYIAWGRIVPTDEQMKELNITSFALINNHTPADLVQEIVKQAQTKHRLNVKLSSNTAHSFDNLVPILKELNSFNNVTVTNIDLYDDGSDEYVNLYNWRDTLNKTDNLKIGKDYLEDVINGINEDTSNTGTSSVYNWQKLYPANYHFLRKDYLTLEPSLHELRDYIGDSLKQMQWDGFKKFNSKQQELFLSIVNFDKQKLQNEYNSSNLPNFVFTGTTVWAGNHEREYYAKQQINVINNAINESSPHYLGNSYDLFFKGHPGGGIINTLIMQNYPSMVDIPSKISFEVLMMTDMLPDAVAGIASSLYFTIPAEKIKFIVFTSTETITDRETALRSPLVQVMIKLGIVKEENVLFWA
# B2: R153G: Psp26ST(15-501)-His6 with R153G point mutation; SEQ ID NO: 10 (protein)
# chain: B1 chain with R139G, D221A
# modifications: C-terminal His6; Synthetic Psp26ST(15-501) R153G
# B3: A235D: Psp26ST(15-501)-His6 with A235D point mutation; SEQ ID NO: 14 (protein)
# chain: B1 chain
# modifications: C-terminal His6; Synthetic Psp26ST(15-501) A235D
# B4: W365G: Psp26ST(15-501)-His6 with W365G point mutation; SEQ ID NO: 4 (protein)
# chain: B1 chain with D221A, W351G
# modifications: C-terminal His6; Synthetic Psp26ST(15-501) W365G
# B5: A124D: Psp26ST(15-501)-His6 with A124D point mutation; SEQ ID NO: 12 (protein)
# chain: B1 chain with A110D, D221A
# modifications: C-terminal His6; Synthetic Psp26ST(15-501) A124D
# B6: W365A: Psp26ST(15-501)-His6 with W365A point mutation; SEQ ID NO: 6 (protein)
# chain: B1 chain with D221A, W351A
# modifications: C-terminal His6; Synthetic Psp26ST(15-501) W365A
# Legend:
# [1] = system: Photobacterium sp. JH-ISH-224 α2-6-sialyltransferase Psp26ST(15-501)-His6, wild type, SEQ ID NO: 23; conditions: apparent, cited from earlier work
# [2] = system: Photobacterium sp. JH-ISH-224 α2-6-sialyltransferase Psp26ST(15-501)-His6 A366G mutant, SEQ ID NO: 2; test: Sialyltransferase kinetics, Psp26ST(15-501)-His6 A366G mutant; format: biochemical; conditions: apparent
# Protocol: Reactions were carried out in duplicate at 20° C. for 20 minutes in a total volume of 10 μL in a proper buffer at the optimal pH according to the pH profile of the wild-type enzyme (see, Ding, 2011, supra). When LacβMU was used as an acceptor, the conditions were: Tris-HCl buffer (200 mM, pH 8.0), enzyme (0.3 μM), varied concentrations of LacβMU (0.1, 0.25, 0.4, 1.0, 2.0, 4.0, and 6.0 mM) with a fixed concentration of CMP-Neu5Ac (1.0 mM) or varied concentrations of CMP-Neu5Ac (0.1, 0.25, 0.4, 1.0, 2.0, 4.0, and 6.0 mM) with a fixed concentration of LacβMU (1.0 mM). When GalNAcα2AA was used as an acceptor, the conditions were: NaOAc-HOAc buffer (200 mM, pH 5.0), enzyme (6 μM), varied concentrations of GalNAcα2AA (0.5, 0.8, 1.0, 2.0, 4.0, 8.0, and 10.0 mM) and a fixed concentration of CMP-Neu5Ac (4.0 mM) or varied concentrations of CMP-Neu5Ac (0.5, 1.0, 2.0, 4.0, 5.0, 8.0, and 10.0 mM) with a fixed concentration of GalNAcα2AA (1.0 mM). When GalNAcαSer was used as an acceptor, the conditions were: Tris-HCl buffer (200 mM, pH 8.0), enzyme (0.6 μM), varied concentrations of GalNAcαSer (0.1, 0.25, 0.5, 1.0, 2.0, 4.0, 8.0, and 10.0 mM) and a fixed concentration of CMP-Neu5Ac (2.0 mM). When GalNAcαThr was used as an acceptor, the conditions were: Tris-HCl buffer (200 mM, pH 8.0), enzyme (3.0 μM), varied concentrations of GalNAcαThr (0.5, 1.0, 2.0, 4.0, 10.0, 20.0, 40.0, 60.0 mM) and a fixed concentration of CMP-Neu5Ac (4.0 mM). Results analysis was performed using the HPLC system as described above for sialyltransferase activity assays. Apparent kinetic parameters were obtained by fitting the experimental data (the average values of duplicate assay results) into the Michaelis-Menten equation using Grafit 5.0.
# [3] = substrate: CC(=O)N[C@H]1[C@H]([C@H](O)[C@H](O)CO)O[C@](OP(=O)(O)OC[C@H]2O[C@@H](n3ccc(N)nc3=O)[C@H](O)[C@@H]2O)(C(=O)O)C[C@@H]1O; test: Donor hydrolysis kinetics (CMP-Neu5Ac hydrolysis), Psp2,6ST(15-501)-His6 A235D mutant; format: biochemical, Photobacterium sp. JH-ISH-224; conditions: other: apparent, 20° C., 10 min, Tris-HCl pH 8.0
# Protocol: (§1) Procedure for Kinetic Analysis of Donor Hydrolysis by His6-Pd2,6ST(16-497), Psp26ST(15-501)-His6 and its A235D and A366G Mutants
# (§2) The kinetics study for the donor hydrolysis activity of His6-Pd2,6ST(16-497) was carried out at 37° C. for 20 min in Tris-HCl buffer (200 mM, pH 8.0). The kinetics study for the donor hydrolysis activities of Psp26ST(15-501)-His6 and its A235D mutant was carried out at 20° C. for 10 min in Tris-HCl buffer (200 mM, pH 8.0). All reactions were performed in duplicate in a total volume of 10 μL containing varied concentrations of CMP-Neu5Ac (10, 20, 40, 60, 80 and 100 mM) and the enzyme (6 μM). Reactions were stopped by adding 10 μL of ethanol and then centrifuged. The supernatants were analyzed by a P/ACETM capillary electrophoresis (CE) system equipped with a photodiode array (PDA) detector (Beckman Coulter, Inc., Fullerton, Calif.). CE conditions were as follows: 75 μm i.d. capillary, 25 KV/80μÅ, 5 s vacuum injections, monitored at 200 nm and 254 nm, the running buffer used was sodium tetraborate (25 mM, pH 9.4). Apparent kinetic parameters were obtained by fitting the experimental data (the average values of duplicate assay results) into the Michaelis-Menten equation using Grafit 5.0.
# [4] = Sialyltransferase activity assays, statements not tied to one acceptor (LacβMU, GalNAcα2AA, GalNAcαSer, GalNAcαThr); format: biochemical
# Protocol: When LacβMU was used as an acceptor, the assay was performed in duplicate in 10 μL of Tris-HCl buffer (100 mM, pH 8.0) containing CMP-Neu5Ac (1 mM), LacβMU (1 mM), MgCl2 (20 mM), wild-type Psp2,6ST(15-501)-His6 or its mutant (0.3 μM). When an α-GalNAc-terminated acceptor was used, the assay was performed in duplicate in 10 μL of Tris-HCl buffer (100 mM, pH 8.0 for GalNAcαSer/Thr) or NaOAc-HOAc (100 mM, pH 5.0 for GalNAcα2AA) containing CMP-Neu5Ac (1.5 mM), the acceptor (1 mM), MgCl2 (20 mM), wild-type Psp2,6ST(15-501)-His6 or its mutant (3.0 μM). Reactions were allowed to proceed at 20° C. for 20 min and stopped by adding 10 μL of cold ethanol. The analysis of sialylated product conversion was performed using the HPLC system as described above for sialyltransferase activity assay. The 4-methylumbelliferone (MU)-labeled fluorescent acceptor and the product formed were detected with excitation at 325 nm and emission at 372 nm. The 2-aminobenzoic acid (2AA)-labeled fluorescent acceptors and the products formed were detected with excitation at 315 nm and emission at 400 nm. The 9-fluorenylmethylcarbamate (Fmoc)-labeled fluorescent acceptors and the products formed were detected with excitation at 262 nm and emission at 313 nm.
# [5] = Kinetics of CMP-Neu5Ac donor hydrolysis activity (capillary electrophoresis); format: biochemical
# Protocol: as §1, §2
# [6] = One-pot two-enzyme (OP2E) sialylation with NmCSS, GalNAcαThr as acceptor; format: biochemical; conditions: 2.5 equivalents of Neu5Ac and 5.0 equivalents of CTP
# From the text: White bars: GalNAcαSer was used as an acceptor with 1 equivalent of Neu5Ac and 1.5 equivalents of CTP. Grey bars: GalNAcαSer was used as an acceptor with 2.5 equivalents of Neu5Ac and 5.0 equivalents of CTP. Black bars: GalNAcαThr was used as an acceptor with 2.5 equivalents of Neu5Ac and 5.0 equivalents of CTP.
# In this system, CTP and Neu5Ac were used by NmCSS for the formation of CMP-Neu5Ac in situ (see also, Yu and Chen, et al. Bioorg. Med. Chem. 2004, 12, 6427-6435). CMP-Neu5Ac was used as the donor substrate for Psp26ST(15-501)-His6 or its mutants. […] For example, using 1 equivalent of Neu5Ac and 1.5 equivalents of CTP in the one-pot two-enzyme (OP2E) reaction (white bars in FIG. 6) improved the GalNAcαSer α2-6-sialylation reaction yields from less than 6% (1 equivalent CMP-Neu5Ac was used) (FIG. 5B) to 32-51% for W365A, W365G, W365S mutants. Similarly, the OP2E reaction improved the GalNAcαSer α2-6-sialylation reaction yields from 40% and 37% to 75% and 67% for A366G mutant and the wild-type enzyme, respectively. Increasing the concentrations of Neu5Ac and CTP to 2.5 and 5.0 equivalents further improved the reaction yields to more than 67% for Psp26ST(15-501)-His6 and its mutants ([…]). […] Therefore, in situ generation of CMP-Neu5Ac, the sugar nucleotide donor for sialyltransferases, was proven an efficient method to enhance the yields for sialylation reactions catalyzed not only by the wild-type enzymes but also sialyltransferase mutants.
# [7] = varied LacβMU, CMP-Neu5Ac 1.0 mM, Tris-HCl pH 8.0, 20° C.
molecule,measurement,setting,value
GalNAcα2AA,Km,[1]; acceptor GalNAcα2AA,9.5 ± 2.7 mM
same,Km,"[2]; varied GalNAcα2AA, CMP-Neu5Ac 4.0 mM, NaOAc-HOAc pH 5.0, 20° C.",5.5 ± 1 mM
Cc1cc(=O)oc2cc(O[C@@H]3O[C@H](CO)[C@@H](O[C@@H]4O[C@H](CO)[C@H](O)[C@H](O)[C@H]4O)[C@H](O)[C@H]3O)ccc12 [LacβMU],Km,[1]; acceptor LacβMU,0.36 mM
same,kcat,[1]; acceptor LacβMU,(1.0 ± 0.1) × 10^2 min^−1
same,Km,[2]; [7],0.41 mM
same,kcat,[2]; [7],(1.0 ± 0.1) × 10^2 min^−1
CC(=O)N[C@H]1[C@@H](O[C@H](C)[C@H](N)C(=O)O)O[C@H](CO)[C@H](O)[C@@H]1O [GalNAcαOThr],Km,[1]; acceptor GalNAcαOThr,5.9 ± 1.6 mM
same,Km,"[2]; varied GalNAcαThr, CMP-Neu5Ac 4.0 mM, Tris-HCl pH 8.0, 20° C.",7.2 ± 3 mM
CC(=O)N[C@H]1[C@@H](OC[C@H](N)C(=O)O)O[C@H](CO)[C@H](O)[C@@H]1O [GalNAcαOSer],Km,[1]; acceptor GalNAcαOSer,1.4 ± 0.1 mM
same,Km,"[2]; varied GalNAcαSer, CMP-Neu5Ac 2.0 mM, Tris-HCl pH 8.0, 20° C.",1.7 ± 0.7 mM
B1,kcat,[3],4.17 ± 0.333 s⁻¹
B2,sialylation activity compared to wild-type,[4],knocked out the sialylation activity completely
B3,sialylation activity compared to wild-type,[4],maintaining most of the sialylation activity
same,donor hydrolysis activity compared to wild-type,[5],decreased donor hydrolysis activity
B4,"yield of Neu5Acα2-6GalNAcαThr from GalNAcαThr, OP2E",[6],91%
B5,sialylation activity compared to wild-type,[4],lost sialylation activity
B6,"yield of Neu5Acα2-6GalNAcαThr from GalNAcαThr, OP2E",[6],85%
